# Measurements as given in patent US8148392B2, “2-indolyl imidazo [4,5-d] phenanthroline derivatives and their use in the treatment of cancer” (Lorus Therapeutics Inc., priority 2005, dated 2012).
# What was measured:
# Format in all cases: cell-based, human
# [1] = system: normal cell lines PrEC, HMEC, WI38 and cancer cell lines DU145, MDA-MB-435, HT-29; assay: Cancer cell selectivity, IC90 in normal versus cancer cell lines (XTT); conditions: average IC90 of all normal / average IC90 of all cancer cell lines, 6 to 7 days
# Description: An exemplary method of assessing the differential sensitivity between normal and cancer cells for a compound has been described by Vassilev et al. (Anti-Cancer Drug Design (2001) 16:7). This method involves the comparison of IC90 values, i.e. the molar concentration of a test compound required to cause 90% growth inhibition of exponentially growing cells. Thus, the IC90 values for candidate compounds can be evaluated in various cancer cell lines (such as those outlined above) and normal cells (such as HUVEC and/or WI38 cells) and compared. IC90 values can be measured using a variety of standard techniques as known in the art. Cancer cell selectivity is calculated as a ratio between the average IC90 for all normal cell lines and the average IC90 for all cancer cell lines. Compounds with an IC90 ratio (normal/cancer) of >4 are considered to be selective for cancer cells (L. T. Vassilev et al., Anti-cancer Drug Design, 2001, 16: 7-17).
# The normal cells lines used were PrEC (prostate), HMEC (breast), and WI38 (lung fibroblast) cell lines and the cancer cells lines were DU145 (prostate), MDA-MB-435 (breast), HT-29 (colon). IC90 values were also determined for the controls doxorubicin and etoposide. The cells were cultured as generally described in Example 13. Various concentrations of the compounds were incubated with the cells for 6 to 7 days, and the number of proliferating cells was measured using the XTT assay. Cancer cell selectivity was calculated as a ratio between the average IC90 for all normal and the average IC90 for all cancer cell lines.
# HT-29 cells = assay: HT-29 cell proliferation (XTT) after knock-down of KLF4 gene by siRNA; conditions: HT-29, XTT
# Procedure: Small interfering RNA (siRNA) transfection was performed as follows. Pre-designed MTF-1 siRNA (ID #115734) (Ambion, Austin, Tex.) was used to knockdown endogenous MTF-1 mRNA. Similarly, pre-designed KLF4 siRNA (ID #115492) (Ambion, Austin, Tex.) was used to knockdown endogenous KLF4 mRNA. A nonspecific, double-stranded RNA
# was synthesized at Qiagen (Cambridge, Mass.) based on the sequence of an unrelated gene. HT-29 cells (3×10^5 cells in 35 mm-culture dishes) were transfected with indicated concentrations of siRNA or scrambled RNA control using Lipofectamine™ 2000 transfection reagent (Invitrogen) by following the manufacturer's instruction, for 6 hr. At the end of the incubation period, the transfection medium was supplemented with a complete growth medium and the cells were incubated at 37° C. for 24 hr before indicated experiments.
# [2] = system: intracellular zinc ions in HT-29 cells; assay: Chelation of intracellular zinc in HT-29 cells, Zinquin fluorescence; conditions: HT-29 with or without pre-loading with 35 μM ZnCl2, 30 min
# Procedure: To determine the chelation property of compound 3 with intracellular zinc ions, HT-29 cells, with or without pre-loaded with 35 μM ZnCl2 were treated with compound 3, a known zinc chelator TPEN or vehicle control (DMSO), and intracellular free zinc was determined by measuring Zinquin fluorescence as described in the preceding Example (FIG. 37). HT-29 cells (4×10^5 cells/group) were pre-treated with 35 μM ZnCl2 for 20 min, followed by addition of indicated concentrations of compound 3 or TPEN and 10 μM Zinquin for 30 min at 37° C., and the fluorescence count was measured (FIG. 37A). For measurement of chelation of endogenous zinc ions in HT-29 cells, HT-29 cells (1.5×10^6 cells/group) were treated with indicated concentrations of compound 3 and 10 μM Zinquin for 30 min at 37° C., and the fluorescence count was measured (FIG. 37B).
# Egr-1 = Egr-1 gene expression in HT-29 cells, RT-PCR
# Procedure: Like Sp1, Egr-1 also is a transcription factor with zinc finger DNA-binding domains, which recognizes GC-rich sequences in the regulatory promoter region of the targeted gene (Al-Sarraj et al., (2005) J. Cell Biochem. 94(1): 153-167). Changes in Egr-1 gene expression were detected in compound 3-treated HT-29 cells by RT-PCR (FIG. 44A) as follows. HT-29 cells were treated with 1 μM compound 3 for the indicated times. Total RNA was extracted and gene expression level was determined by RT-PCR. To determine the effects of zinc supplement, HT-29 cells were treated with 1 μM compound 3, 35 μM ZnCl2 or compound 3 and ZnCl2 together for 8 hr. Egr-1 gene expression was determined by RT-PCR (FIG. 44B).
# Cyclin E = Cyclin E protein in HT-29 cells, Western blotting; conditions: HT-29, 1 μM
# p21 protein = p21 protein in HT-29 total cell lysate, ELISA / Western blot; conditions: HT-29, 1 μM
# Procedure: The expressions of p21 gene and proteins were examined following treatment with compound 3. Gene expression of p21 in HT-29 cells treated with 1 μM compound 3 was determined at the indicated times as follows. Total RNA was extracted and gene expression level was determined by RT-PCR (FIG. 42A). The level of p21 protein in total cell lysate was measured by ELISA (FIG. 42B) as follows. HT-29 cells were treated with 1 μM compound 3 with and without 20 μM MG-132 (proteasome inhibitor) for indicated time.
smiles,measurement,setting,value
Cc1[nH]c2ccccc2c1-c1nc2c3cccnc3c3ncccc3c2[nH]1 [Compound 3],Normal/cancer IC90 ratio,[1],>4.3
same,cell growth inhibition after knock-down of KLF4 gene by siRNA,HT-29 cells,loss of compound 3-mediated cell growth inhibition
same,intracellular free zinc (Zinquin fluorescence),[2],Dose-dependent decrease in both pre-loaded zinc and endogenous zinc levels
same,Egr-1 expression change with zinc supplement,"Egr-1; HT-29, 1 μM compound plus 35 μM ZnCl2, 8 hr",reversible upon addition of zinc supplement
same,Egr-1 gene expression,"Egr-1; HT-29, 1 μM, as early as 2 hr",significant increase in Egr-1 gene expression
same,Cyclin E expression,Cyclin E,decreased expression of Cyclin E
same,p21 protein level,p21 protein; with 20 μM MG-132 (proteasome inhibitor),increased p21 protein level was detected
same,p21 protein expression,p21 protein; without MG-132,comparable increase in p21 protein expression was not detected
